System: relapsed or refractory, rituximab-naive or -sensitive follicular B-cell NHL
Experiment: Time to progression (TTP), Vc-R vs rituximab study, by biomarker
Type: in vivo, human
Parameters: TTP Median: unit not given here
Excerpt: Non-Hodgkin lymphoma (NHL) encompasses several unique malignant lymphoid disease entities that vary in clinical behavior, morphologic appearance, immunologic, and molecular phenotype. […] A randomized, open-label, active-controlled, multicenter, multinational, prospective study to compare the efficacy and safety of the combination of bortezomib and rituximab (Vc-R) to single-agent rituximab in subjects who have relapsed or refractory, rituximab-naive or -sensitive follicular B-cell NHL was performed.
Subjects were centrally randomized to Treatment Groups A (Vc-R) or B (rituximab) in a 1:1 ratio taking into account the following stratification factors: • Follicular Lymphoma International Prognostic Index (FLIPI) score (low [0 or 1 factor], intermediate [2 factors], high [≧3 factors]); • Prior rituximab therapy (yes, no); • Time since last dose of anti-lymphoma therapy (≦1 year, >1 year); • Region (United States/Canada, European Union, Rest of World).
For single-marker association analyses and pair-wise comparisons, a log rank test and Cox proportional hazard model was utilized for assessments of PFS, TTP, and OS between the treatment groups. Kaplan-Meier curves were utilized to estimate the distribution differences between groups in the time-to-event analyses. Comparison of the response rates between the treatment groups was conducted using the Fishers exact test. Single-marker association analyses were stratified by the covariates.
For pair-wise comparison analysis, biomarker pairs were formed by combinations of two markers. A log rank test was utilized for assessments of PFS, TTP, and OS between the treatment groups in the subpopulation defined by biomarker pairs. Kaplan-Meier curves were utilized to estimate the distribution differences between groups in the time-to-event analyses. Comparison of the response rates between the treatment groups was conducted using the Fishers exact test. Methods of Analysis for the multiple biomarker comparison models can be found in section 4.6.

[1] = PSMB1/I208N: T/T, Ann Arbor Stage IV, IRC review
[2] = PSMB1/I208N: T/T, High Tumor Burden, IRC review
[3] = PSMB1/I208N: T/T, ≦65 years old, IRC review
[4] = PSMB1/P11A: C/G, Ann Arbor Stage IV, IRC review
[5] = PSMB1/P11A: C/G, High Tumor Burden, IRC review
[6] = PSMB1/P11A: C/G, ≦65 years old, IRC review
[7] = PSMB1/P193L: C/C, Ann Arbor Stage IV, IRC review
[8] = PSMB1/P193L: C/C, High Tumor Burden, IRC review
[9] = PSMB1/P193L: C/C, ≦65 years old, IRC review
[10] = PSMB2/E49X: G/G, Ann Arbor Stage IV, IRC review
[11] = PSMB2/E49X: G/G, High Tumor Burden, IRC review
[12] = PSMB2/E49X: G/G, ≦65 years old, IRC review
[13] = PSMB2/G187V: G/G, Ann Arbor Stage IV, IRC review
[14] = PSMB2/G187V: G/G, High Tumor Burden, IRC review
[15] = PSMB2/G187V: G/G, ≦65 years old, IRC review
[16] = PSMB2/L159F: C/C, Ann Arbor Stage IV, IRC review
[17] = PSMB2/L159F: C/C, High Tumor Burden, IRC review
[18] = PSMB2/L159F: C/C, ≦65 years old, IRC review
[19] = PSMB5/L206M: C/C, Ann Arbor Stage IV, IRC review
[20] = PSMB5/L206M: C/C, High Tumor Burden, IRC review
[21] = PSMB5/L206M: C/C, ≦65 years old, IRC review
[22] = PSMB5/R24C: C/C, ≦65 years old, IRC review
[23] = PSMB5/R24C: C/T, 2 Prior Lines of Therapy, IRC review
[24] = PSMB5/R24C: C/T, High Tumor Burden, IRC review
[25] = PSMB6/A234D: C/C, Ann Arbor Stage IV, IRC review
[26] = PSMB6/A234D: C/C, High Tumor Burden, IRC review
[27] = PSMB6/A234D: C/C, ≦65 years old, IRC review
[28] = PSMB6/P107A: C/C, Ann Arbor Stage IV, IRC review
[29] = PSMB6/P107A: C/C, ≦65 years old, IRC review
[30] = PSMB8/G8R: G/G, Ann Arbor Stage IV, IRC review
[31] = PSMB8/G8R: G/G, High Tumor Burden, IRC review
[32] = PSMB8/G8R: G/G, ≦65 years old, IRC review
[33] = PSMB8/R141C: C/C, Ann Arbor Stage IV, IRC review
[34] = PSMB8/R141C: C/C, High Tumor Burden, IRC review
[35] = PSMB8/R141C: C/C, ≦65 years old, IRC review
[36] = PSMB8/V182M: G/G, >1 year since last anti-lymphoma treatment, IRC review
[37] = PSMB8/V182M: G/G, Ann Arbor Stage IV, IRC review
[38] = PSMB8/V182M: G/G, High Tumor Burden, IRC review
[39] = PSMB8/V182M: G/G, ≦65 years old, IRC review
[40] = PSMB9/G9E: G/G, >1 year since last anti-lymphoma treatment, IRC review
[41] = PSMB9/G9E: G/G, Ann Arbor Stage IV, IRC review
[42] = PSMB9/G9E: G/G, High Tumor Burden, IRC review
[43] = PSMB9/G9E: G/G, ≦65 years old, IRC review
[44] = PSMB9/R60H: A/G, Male, IRC review
[45] = PSMB9/R60H: G/G, ≦65 years old, IRC review
[46] = PSMB9/V32I: C/C, >1 year since last anti-lymphoma treatment, IRC review
[47] = PSMB9/V32I: C/C, Ann Arbor Stage IV, IRC review
[48] = PSMB9/V32I: C/C, No Subgroup, IRC review
[49] = PSMB9/V32I: C/C, ≦65 years old, IRC review

rituximab
TTP Median (PSMB1/A171S: G/G, ≦65 years old, IRC review): 326 | TTP Evt/N [1]: 95/127 | TTP Median [1]: 278 | TTP Evt/N [2]: 110/147 | TTP Median [2]: 273 | TTP Evt/N [3]: 131/198 | TTP Median [3]: 326 | TTP Evt/N [4]: 46/59 | TTP Median [4]: 235 | TTP Evt/N [5]: 52/72 | TTP Median [5]: 253 | TTP Evt/N [6]: 62/96 | TTP Median [6]: 288 | TTP Evt/N [7]: 95/127 | TTP Median [7]: 278 | TTP Evt/N [8]: 110/147 | TTP Median [8]: 273 | TTP Evt/N [9]: 131/198 | TTP Median [9]: 326 | TTP Evt/N [10]: 95/127 | TTP Median [10]: 278 | TTP Evt/N [11]: 110/147 | TTP Median [11]: 273 | TTP Evt/N [12]: 131/198 | TTP Median [12]: 326 | TTP Evt/N [13]: 95/127 | TTP Median [13]: 278 | TTP Evt/N [14]: 110/147 | TTP Median [14]: 273 | TTP Evt/N [15]: 131/198 | TTP Median [15]: 326 | TTP Evt/N [16]: 95/127 | TTP Median [16]: 278 | TTP Evt/N [17]: 110/147 | TTP Median [17]: 273 | TTP Evt/N [18]: 131/198 | TTP Median [18]: 326 | TTP Evt/N [19]: 95/127 | TTP Median [19]: 278 | TTP Evt/N [20]: 110/147 | TTP Median [20]: 273 | TTP Evt/N [21]: 131/198 | TTP Median [21]: 326 | TTP Evt/N [22]: 115/170 | TTP Median [22]: 334 | TTP Evt/N [23]: 8/10 | TTP Median [23]: 280 | TTP Evt/N [24]: 17/21 | TTP Median [24]: 275 | TTP Evt/N [25]: 95/127 | TTP Median [25]: 278 | TTP Evt/N [26]: 110/147 | TTP Median [26]: 273 | TTP Evt/N [27]: 131/198 | TTP Median [27]: 326 | TTP Evt/N [28]: 92/124 | TTP Median [28]: 279 | TTP Evt/N [29]: 126/189 | TTP Median [29]: 330 | TTP Evt/N [30]: 88/120 | TTP Median [30]: 279 | TTP Evt/N [31]: 104/140 | TTP Median [31]: 271 | TTP Evt/N [32]: 124/189 | TTP Median [32]: 330 | TTP Evt/N [33]: 95/127 | TTP Median [33]: 278 | TTP Evt/N [34]: 110/147 | TTP Median [34]: 273 | TTP Evt/N [35]: 131/198 | TTP Median [35]: 326 | TTP Evt/N [36]: 104/165 | TTP Median [36]: 381 | TTP Evt/N [37]: 95/127 | TTP Median [37]: 278 | TTP Evt/N [38]: 110/147 | TTP Median [38]: 273 | TTP Evt/N [39]: 131/198 | TTP Median [39]: 326 | TTP Evt/N [40]: 104/163 | TTP Median [40]: 381 | TTP Evt/N [41]: 95/126 | TTP Median [41]: 278 | TTP Evt/N [42]: 110/145 | TTP Median [42]: 271 | TTP Evt/N [43]: 131/196 | TTP Median [43]: 326 | TTP Evt/N [44]: 22/28 | TTP Median [44]: 273 | TTP Evt/N [45]: 79/119 | TTP Median [45]: 330 | TTP Evt/N [46]: 102/160 | TTP Median [46]: 379 | TTP Evt/N [47]: 93/123 | TTP Median [47]: 277 | TTP Median (PSMB9/V32I: C/C, High Tumor Burden, IRC Review): 273 | TTP Evt/N [48]: 177/266 | TTP Median [48]: 345 | TTP Evt/N [49]: 129/192 | TTP Median [49]: 326

From US9322066B2, “Predictors for cancer treatment” (priority 2011, dated 2016)
